According to patent US4014921A, “O-Acetoxy benzoate ester of 2(p-acetamido-phenyloxy)ethyl alcohol” (Alter, S.A., priority 1975, dated 1977):
Like-named read-outs stand apart in the source and are kept apart here.

Experiments:
stomach or intestine [1] = details: rat, in vivo, 500 mg/kg
[2] = Anti-inflammatory activity: edema inhibition (method of Winter, Risley and Nuss); type: in vivo; details: in vivo; LD50 / anti-inflammatory ED50; read-out: anti-inflammatory ED50 times lower than LD50
edema = experiment: as above; type: in vivo
rat [3] = experiment: Toxicity test by oral administration in a rat (LD50, LD10)
[4] = Analgesic activity (test by Randall and Salitto); type: in vivo
Protocol: Int. Pharmacodyn 151, 409 (1957). Doses of 200, 300 and 500 mg/Kg. cause 1.43: 1.77 and 2.09 effects over controls.

[5] = Antithermic (antipyretic) activity: yeast extract-induced temperature rise in rabbits; type: in vivo, rabbit
Protocol: Antithermic activity was determined in rabbits, adjusting an endovenous dose of yeast extract to achieve a + 1.7° C rise over the basal temperature of the animal. Three hours after injecting the pyrogenic agent, 200 mg/Kg of the product were administered interperitoneally.

rat [6] = details: in vivo, po
[7] = Toxicity test by oral administration in a rat (LD50, LD10); details: rat, in vivo, po
stomach or intestine [8] = experiment: Gastrointestinal toxicity: ulcers and hemorrhagic content after one dose of 500 mg/Kg in rats; details: one dose of 500 mg/Kg, 10-rat groups
[9] = comparison with aspirin, in words

CC(=O)Nc1ccc(OCCOC(=O)c2ccccc2OC(C)=O)cc1 [Compound (I), o-acetoxy benzoate ester of 2(p-acetamido-phenyloxy)-ethyl alcohol]
gastrointestinal disorders, comparison with aspirin (stomach or intestine [1]): clear differences appear in favor of compound (I) over aspirin
ulcers of the stomach or intestine (stomach or intestine [1]): no ulcers
selectivity ratio [2]: 10
anti-inflammatory activity relative to aspirin (edema; [9]): as active as aspirin
anti-inflammatory activity: times less active than indometacine (edema; comparison with indometacine): 33 times
inhibition at 200 mg/kg (edema; dose 200 mg/Kg): 23%
inhibition at 400 mg/kg (edema; dose 400 mg/Kg): 31%
toxicity factor relative to aspirin (rat [3]; factor in favor of product (I) over aspirin): 7
toxicity relative to aspirin (rat [3]; oral, rat, in words): less toxic than aspirin
analgesic activity relative to aspirin [4, 9]: equipotential with respect to aspirin
analgesic effect over controls ([4]; dose 200 mg/Kg): 1.43
analgesic effect over controls ([4]; dose 300 mg/Kg): 1.77
analgesic effect over controls ([4]; dose 500 mg/Kg): 2.09
animal's temperature after administration, for two consecutive hours ([5]; 200 mg/Kg interperitoneally, three hours after pyrogenic agent (+1.7° C rise)): decreased to its basal values
duration of antipyretic effect relative to aspirin and N-acetyl-p-aminophenol ([5]; in words): longer lasting effects
LD10 (maximum dose possible to administer) (rat [6]): 7,000 mg/Kg

CC(=O)Oc1ccccc1C(=O)O [aspirin]
LD50 [7]: 978 mg/kg
rats whose stomachs revealed hemorrhagic content (stomach or intestine [8]): 60%
ulcers of the stomach or intestine (stomach or intestine [8]): no ulcers

COc1ccc2c(c1)c(CC(=O)O)c(C)n2C(=O)c1ccc(Cl)cc1 [indometacine, reference compound]
anti-inflammatory ED50 relative to toxic range (edema; in words): very close to the toxic range
